From patent publication US20090227619A1, “Harmine derivatives, intermediates used in their preparations, preparation processes and use therefo” (priority 2003, published 2009)
Read-outs that look alike come from different tables or passages of the source.

What was measured:
CT-DNA [1] = assay: DNA thermal denaturation, determination of ΔTm; type: binding; settings: 20 uM compound, Tm of CT-DNA alone 61° C.
Protocol: Experiments were carried out in PE buffer (1 mM Na2HPO4, 0.1 mM EDTA, pH 7.6) in a thermostatically controlled cell hold, and the quartz cuvette (1 cm path length) was heated by circulating water at a heating rate of 0.5° C./min from 25 to 95° C. Amsacrine and Doxorubicin Hydrochloride were used as standards. In all cases, the concentration of CT-DNA was 15 ug/ml. The ‘melting’ temperature Tm was taken as the mid-point of the hyperchromic transition.
ΔTm=Tm^drug-DNA complex−Tm^DNA alone
The ΔTm of each compound was calculated, Experiments were repeated three times, and an average value was calculated.

Bel-7402 = assay: In vitro cytotoxicity, IC50 by MTT method, Bel-7402; type: cell-based
Procedure, shortened: (§1)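 Cells in RPMI1640 with 10% FBS at 37° C, 5% CO2 were seeded at 10^5/ml and exposed to a compound concentration gradient for 48 h, at least three replicates, solvent controls.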

Lovo = assay: In vitro cytotoxicity, IC50 by MTT method, Lovo; type: cell-based
Procedure, shortened: as §1

HepG2 = assay: In vitro cytotoxicity, IC50 by MTT method, HepG2; type: cell-based, human
Procedure, shortened: as §1

NIH3T3 = assay: In vitro cytotoxicity, IC50 by MTT method, NIH3T3; type: cell-based
Procedure, shortened: as §1

Hela = assay: In vitro cytotoxicity, IC50 by MTT method, Hela; type: cell-based
Procedure, shortened: as §1

PLA-801 = assay: In vitro cytotoxicity, IC50 by MTT method, PLA-801; type: cell-based
Procedure, shortened: as §1

BGC-823 = assay: In vitro cytotoxicity, IC50 by MTT method, BGC-823; type: cell-based
Procedure, shortened: as §1

CT-DNA [2] = assay: UV absorption spectrum method with CT-DNA; type: binding; settings: CT-DNA 40 ug/ml, compound 20 uM, 37° C. for 2 h, OD at 260 nm
Protocol: Compounds to be tested (20 uM) were added into the PE buffer solution, and its scan curve was identified by the spectrograph at a wavelength of from 200 to 400 nm. CT-DNA (40 ug/ml) and compounds to be tested (20 uM) were added into the PE buffer solution. The mixture was cultured at 37° C. for 2 h, and its scan curve was identified by the UV spectrograph at a wavelength of from 200 to 400 nm. […] After that, the OD value at 260 nm of the scan curve of the medicaments tested and that of the CT-DNA mixture OD value at 260 nm of the scan curve were calculated and compared to determine the influences of the medicaments tested on the UV absorption spectrum of the DNA molecules.

[3] = Homo sapiens, Bel-7402, Bel7402 cell strain, read-out: IC50 Bel7402
[4] = Homo sapiens, Lovo cell strain, read-out: IC50 Lovo
[5] = Homo sapiens, HepG2 cell strain, read-out: IC50 HepG2
[6] = Mus musculus, NIH3T3 cell strain, read-out: IC50 NIH3T3
[7] = Homo sapiens, Hela cell strain, read-out: IC50 Hela
[8] = PLA-801 cell strain, read-out: IC50 PLA-801
[9] = Homo sapiens, BGC-823, BGC823 cell strain, read-out: IC50 BGC823
[10] = CT-DNA 15 ug/ml, PE buffer pH 7.6

| SMILES | ΔTm (CT-DNA [1]; CT-DNA thermal denaturation) [°C] | IC50 (Bel-7402; [3]) [µM] | IC50 (Lovo; [4]) [µM] | IC50 (HepG2; [5]) [µM] | IC50 (NIH3T3; [6]) [µM] | IC50 (Hela; [7]) [µM] | IC50 (PLA-801; [8]) [µM] | melting point [°C] | IC50 (BGC-823; [9]) [µM] | further results |
| --- | --- | --- | --- | --- | --- | --- | --- | --- | --- | --- |
| COc1ccc2c3ccnc(C)c3n(CCO)c2c1 [Compound 5, 9-hydroxyethyl-7-methoxy-1-methyl-β-carboline] | 5.9 | – | – | – | – | – | – | – | – | IC50 (Bel-7402; Homo sapiens, Bel-7402, BeI7402, MTT, read-out: IC50): 240 µM; IC50 (Lovo; Homo sapiens, Lovo, MTT, read-out: IC50): 30 µM; IC50 (HepG2; Homo sapiens, HepG2, MTT, read-out: IC50): 310 µM; IC50 (NIH3T3; Mus musculus, NIH3T3, MTT, read-out: IC50): 80 µM; IC50 (Hela; Homo sapiens, Hela, MTT, read-out: IC50): 30 µM; IC50 (PLA-801; PLA-801, MTT, read-out: IC50): 80 µM; IC50 (BGC-823; Homo sapiens, BGC-823, BGC823, MTT, read-out: IC50): 200 µM |
| COc1ccc2c3ccnc(C)c3n(Cc3c(F)c(F)c(F)c(F)c3F)c2c1 [Compound 7, 9-(2′,3′,4′,5′,6′-pentafluoro)benzyl-7-methoxy-1-methyl-β-carboline] | 7.5 | – | – | – | – | – | – | – | – | IC50 (Bel-7402; BeI7402, MTT, read-out: IC50): 40 µM; IC50 (Lovo; Lovo, MTT, read-out: IC50): 40 µM; IC50 (HepG2; HepG2, MTT, read-out: IC50): 50 µM; IC50 (NIH3T3; NIH3T3, MTT, read-out: IC50): 50 µM; IC50 (Hela; Hela, MTT, read-out: IC50): 40 µM; IC50 (PLA-801; PLA-801, MTT, read-out: IC50): 420 µM; IC50 (BGC-823; BGC823, MTT, read-out: IC50): 20 µM |
| CCCCOC(=O)c1cc2c3ccccc3n(CC)c2cn1 [Compound 39, butyl 9-ethyl-β-carboline-3-carboxylate] | 1.6 | 70 | 80 | 70 | 80 | 70 | 110 | 86 to 88 | 80 | – |
| CC(=O)COc1cc2c3ccccc3n(Cc3ccccc3)c2cn1 [Compound 43, 9-benzyl-3-acetylmethoxy-β-carboline] | – | 130 | > 3000 | 300 | > 3000 | 500 | 250 | 141 to 142 | > 3000 | Influence on the UV absorption of DNA (CT-DNA [2]): increase the UV absorption of DNA |
| Cc1nc(C(=O)O)cc2c3ccccc3n(C)c12 [Compound 62, 1,9-dimethyl-β-carboline-3-carboxylic acid] | – | 1500 | 440 | 1380 | 630 | 1110 | 2350 | 262 to 264 | 640 | – |
| CCn1c2ccccc2c2cc(C(=O)O)nc(C)c21 [Compound 63, 9-ethyl-1-methyl-β-carboline-3-carboxylic acid] | – | 1820 | 590 | 2800 | 710 | 970 | 2330 | 243 to 245 | 1660 | – |
| Cc1nc(C(=O)O)cc2c3ccccc3n(CCCc3ccccc3)c12 [Compound 65, 9-phenylpropyl-1-methyl-β-carboline-3-carboxylic acid] | – | 560 | 50 | 140 | 110 | 220 | 210 | 186 to 188 | 270 | – |
| CCCc1nc(C(=O)OCC)cc2c3ccccc3n(C)c12 [Compound 68, ethyl 1-propyl-9-methyl-β-carboline-3-carboxylate] | – | 460 | 60 | 100 | 80 | 1360 | 140 | 108 to 109 | 110 | – |
| CCCc1nc(C(=O)OCC)cc2c3ccccc3n(CC)c12 [Compound 69, ethyl 1-propyl-9-ethyl-β-carboline-3-carboxylate] | – | 330 | 100 | 110 | 100 | 90 | 710 | 86 to 87 | 230 | – |
| CCCc1nc(C(=O)OCC)cc2c3ccccc3n(Cc3ccccc3)c12 [Compound 70, ethyl 9-benzyl-1-propyl-β-carboline-3-carboxylate] | – | 1010 | 1170 | 790 | 1570 | 810 | 160 | 158 to 159 | 1010 | – |
| CCCc1nc(C(=O)OCC)cc2c3ccccc3n(CCCc3ccccc3)c12 [Compound 71, ethyl 9-phenylpropyl-1-propyl-β-carboline-3-carboxylate] | – | 910 | 60 | 120 | 190 | 60 | 260 | 92 to 93 | 1320 | – |
| CCCc1nc(C(=O)O)cc2c3ccccc3n(C)c12 [Compound 72, 9-methyl-1-propyl-β-carboline-3-carboxylic acid] | – | > 3000 | 210 | 1170 | 570 | 960 | 1400 | 181 to 183 | 540 | – |
| CCCc1nc(C(=O)O)cc2c3ccccc3n(CC)c12 [Compound 73, 1-propyl-9-ethyl-β-carboline-3-carboxylic acid] | – | 570 | 260 | 540 | 390 | 420 | 710 | 189 to 191 | 390 | – |
| COC(=O)c1cc2c3ccccc3n(C)c2c(-c2ccccc2)n1 [Compound 76, methyl 1-phenyl-9-methyl-β-carboline-3-carboxylate] | – | 620 | > 3000 | > 3000 | > 3000 | > 3000 | > 3000 | 205 to 207 | > 3000 | – |
| CCn1c2ccccc2c2cc(C(=O)OC)nc(-c3ccccc3)c21 [Compound 77, methyl 1-phenyl-9-ethyl-β-carboline-3-carboxylate] | – | 380 | 70 | > 3000 | 140 | 2660 | > 3000 | 169 to 170 | > 3000 | – |
| c1ccc2c(c1)[nH]c1cnccc12 [Compound 80, β-carboline] | 3.1 | – | – | – | – | – | – | – | – | IC50 (Bel-7402; Homo sapiens, Bel-7402, read-out: IC50 Bel7402): 380 µM; IC50 (Lovo; Homo sapiens, LoVo, read-out: IC50 Lovo): 40 µM; IC50 (HepG2; Homo sapiens, HepG2, read-out: IC50 HepG2): 230 µM; IC50 (NIH3T3; Mus musculus, NIH3T3, read-out: IC50 NIH3T3): 20 µM; IC50 (Hela; Homo sapiens, HeLa, read-out: IC50 Hela): 350 µM; IC50 (PLA-801; read-out: IC50 PLA-801): 20 µM; IC50 (BGC-823; Homo sapiens, BGC-823, read-out: IC50 BGC823): 270 µM |
| Cn1c2ccccc2c2ccncc21 [Compound 81, 9-methyl-β-carboline] | 3.3 | 300 | 220 | 100 | 120 | 330 | 220 | – | 200 | – |
| CCn1c2ccccc2c2ccncc21 [Compound 82, 9-ethyl-β-carboline] | 4.2 | 310 | 160 | 170 | 100 | 230 | 130 | – | 170 | Influence on the UV absorption of DNA (CT-DNA [2]): reduce the UV absorption of DNA |
| COc1cccc2c1C(=O)c1c(O)c3c(c(O)c1C2=O)C[C@@](O)(C(=O)CO)C[C@@H]3O[C@H]1C[C@H](N)[C@H](O)[C@H](C)O1 [adriamycin, reference compound] | 10.8 | – | – | – | – | – | – | – | – | ΔTm (CT-DNA [1]; [10]): 10.8 °C; Influence on the UV absorption of DNA (CT-DNA [2]): reduce the UV absorption of DNA |
| CC[C@@]1(O)C(=O)OCc2c1cc1n(c2=O)Cc2cc3ccccc3nc2-1 [camptothecin, reference compound] | −2.5 | – | – | – | – | – | – | – | – | ΔTm (CT-DNA [1]; [10]): −2.5 °C; Influence on the UV absorption of DNA (CT-DNA [2]): increase the UV absorption of DNA |
